Measurements published in patent US20040224935A1, “Topical antiandrogenic steroids” (Endorecherche, Inc., priority 2003, published 2004).
Where two headings read alike, the source gives them in different places.

Assays:
rat seminal vesicle = experiment: Systemic antiandrogenic activity in immature male rats (castrated, DHT implant), seminal vesicle weight; conditions: po, 168 h, 0.5 mg/animal per os once daily 7 days, % efficacy relative to inhibition by flutamide, read-out: RAT (in vivo) (systemic) SV Inh % inh. (0.5 mg, per os)
Procedure: Column 6 represents the % of antiandrogenic efficacy on the rat seminal vesicle, relative to the percentage of inhibition by flutamide calculated by the formula:
(§1) % efficacy versus Flu=100×% inhib (compound)/% inhib (Flu).
(§2) Where the percentage of inhibition (% inhib) is calculated by the following formula:
(§3) % Inhib=100−[W (compound)−W (control)/W (DHT)−W (control)]×100.
W is the weight of the seminal vesicle.
(§4) C Systemic antiandrogenic activity (immature male rats)
(§5) 1. Animals Immature male rats (Crl:CD(SD)Br) 22 to 24-day old were obtained from Charles-River, Inc. (St-Constant, Quebec, Canada) and housed up to 5 per cage in plastic bins in a temperature (23±1° C.)—and light (12 h light/day, lights on at 7h15)—controlled environment. The rats were fed rodent chow and tap water ad libitum. The day following their arrival, the animals were orchidectornized (CX) under Isoflurane anesthesia via scrotal route and randomly assigned to groups of 5 animals. One silastic implant of dihydrotestosterone (DHT; length of implant: 1 cm) was inserted subcutaneously in the dorsal area of animals at the time of orchidectomy. One group of 5 animals was CX only as control (no DHT implant inserted).
(§6) 2. Treatments To evaluate the antiandrogenic activity, tested compounds were administered orally by gavage once daily at a dose of 0.5 mg/animal for 7 days (SD 1 to 7). Compounds were solubilized (when possible) in dimethylsulfoxide (DMS, 10% final concentration) and administered as suspension in 0.4% methylcellulose. Rats in CX control and CX+DHT control groups received the vehicle alone during the 7-day period. One group of animals received the antiandrogen Flutamide as reference. The animals were killed by cervical dislocation under isoflurane anesthesia on the 8th morning following castration. The ventral prostate and seminal vesicles were rapidly dissected and weighed.
(§7) 3. Calculations and Statistical Analysis The percentage of inhibition (% inhib) is calculated by the following formula:
(§8) This percentage is reported as % of efficacy, relatively to the percentage of inhibition of flutaride calculated by the formula: % efficacy versus Flu=100×% inhib (compound)/% inhib (Flu).
(§9) W is the weight of the prostate or the seminal vesicle.

[1] = system: Shionogi mouse mammary carcinoma cells; experiment: In vitro androgenic/antiandrogenic activity, DHT-stimulated Shionogi cell number; assay type: cell-based; conditions: for Shionogis (In Vitro) VS OH-FLU (ratio of Ki of hydroxyflutamide versus tested compound): OH-Flu = 1, DHT-stimulated cell number, higher values preferable
rat prostate = experiment: Systemic antiandrogenic activity in immature male rats (castrated, DHT implant), prostate weight; conditions: po, 168 h, 0.5 mg/animal per os once daily 7 days, % efficacy relative to inhibition by flutamide, read-out: RAT (in vivo) (systemic) Prostate Inh. % inh. (0.5 mg, per os)
Procedure: Column 5 represents the % of antiandrogenic efficacy in rat prostate, relatively to the percentage of inhibition of flutamide calculated by the formula:
as §1, §2
% lnhib=100−[W (compound)−W (control)/W (DHT)−W (control)]×100.
W is the weight of the prostate.
as §4, §5, §6, §7, §3, §8, §9

[2] = system: Hamster's ear sebaceous glands; experiment: Topical antiandrogenic activity, histomorphometry of the ear sebaceous glands in the hamster; assay type: in vivo, Male Golden Syrian hamster; conditions: Mesocricetus auratus, 336 h, once daily, 14 days, sebaceous gland area, read-out: Antiandrogenic activity in Hamster's sebaceous glands Inh. Vs Cx (%); for inhibition in vivo at 0.001 mg: dose 1 μg applied topically on left ear of intact male hamster; for inhibition in vivo at 0.003 mg: dose 3 μg applied topically on left ear of intact male hamster; for inhibition in vivo at 0.01 mg: dose 10 μg applied topically on left ear of intact male hamster
Source text: Column 3 represents the dose of antiandrogenic compounds applied on the left ear of the intact male hamster.
Column 4 represents the relative inhibition in % of the area of the sebaceous gland of the left ear versus control hamster. Higher values approaching the effect of castration are preferable
The Antiandrogenic activity of antiandrogenic compounds has been measured using a Histomorphometry assay of the Ear Sebaceous Glands in the Hamster
1. Animals Male Golden Syrian, Hamster (SYR) of 110-120 g were obtained from Harlan Sprague Dawlay (Madison, USA) and housed up to 2 per cage in plastic cages in a temperature (22±3° C.) and light (12 h light/day, lights on at 7 h 15) in a controlled environment. The hamsters were fed with Certified Rodent Diet 5002 (pellet) and tap water ad libitum. The animals were acclimated for at least five days before the beginning of the study. Animals were randomly assigned to groups of eight hamsters. One group of hamsters was castrated under isoflurane-induced anesthesia on the day of dosing initiation (SD 1) and used as control group.
2. Treatments To evaluate the antiandrogenic activity, tested compounds were applied topically on the inner part of the left ear, once daily, for 14 days. Ten μL solution of acetone: ethanol: propylene Glycol (1:1:2; v:v:v) containing 0.1, 0.3 or 1.0 mg/mL of tested compound was carefully applied onto a region between the two cartilage ridges of the ventral surface of left pinna. For animals in the castrated and intact control groups ten-μL vehicle was applied onto the left ear. No solution will be applied on the right ear for any animals of the study.
3. Postmortem Observations and Measurements On Study Day 15, the hamsters were euthanized by cervical dislocation under isoflurane anesthesia. The left and right ears were collected attached together by the head skin, flat fixed on a paper and were immersed in 10% neutral buffered formalin. From the flat fixed ear and using paper puncture that makes a hole of 6 mm, the region where solution was applied was collected from each ear. Using a scalpel blade, the collected 6 mm round ear specimen was cut in the middle between the two cartilage ridges. The two equal parts of the ear round specimen were embedded in paraffin. After processing the tissue, the two parts were vertically embedded parallel to each other in a way that the flat 6 mm area was facing out. From each paraffin block, one section (5 μm thick) was cut and collected on a glass slide. Thus, each slide contained two elongated sections of 6 mm length. Slides were stained with hematoxylin and eosin.
4. Analysis of Sebaceous Gland Area Using the video camera and objective lens number X5 of the light microscope, the resulting field that appears on the screen has a length of 0.953 mm. From the glass slide, when we have examined the first 6 mm long section from the left to the right, the first and second fields were ignored and the third and fourth fields were captured for analysis by the image analyzer. Each field has the length of 0.953 mm. With the help of the screen mouse, the sebaceous glands within the whole field length (0.953mm) were marked. Also, an area with the length of the whole field and the height between stratum granulosum and the upper edge of the cartilage was drawn.
The image analyzer calculated the total area of the sebaceous glands (μm^2) in each examined field. We also obtained the area, which has the length of 0.953 mm and the height between stratum granulosum and the cartilage. In addition, the percentage of the area occupied by the glands was obtained. Thus, for each ear, two sections were cut and two fields from each section were analyzed. The total of the four readings was averaged and the mean standard of error calculated by the image analyzer. The results were expressed in μm^2 as the total surface of glands per field and also as percentage of the area occupied by the glands.

[3] = Mus musculus, read-out: Shionogis (In Vitro) IC50(nM), inhibition of DHT-stimulated cell number, 10-12 days

Structure (SMILES)	inhibition in vivo at 0.5 mg (rat seminal vesicle)	IC50 [1, 3]	IC50 ([1]; read-out: Shionogis (In Vitro) IC50, inhibition of DHT-stimulated cell number, 10-12 days)	inhibition in vivo at 0.5 mg (rat prostate)	inhibition in vivo at 0.001 mg [2]	inhibition in vivo at 0.003 mg [2]	inhibition in vivo at 0.01 mg [2]	Shionogis (In Vitro) VS OH-FLU (ratio of Ki of hydroxyflutamide versus tested compound) [1]
CC1(C)CC2C3CCc4c(C#N)cccc4C3CC[C@]2(C)[C@H]1O (stereo partly drawn) [EM-2557]	0%	15 nM	18 nM	6%	52.4%	42.8%	66.6%	
CC#C[C@@H]1CC2C3CCc4c(C#N)cccc4C3CC[C@]2(C)[C@H]1O (stereo partly drawn) [EM-2627]	25%	7.8 nM		0%	14.3%	42.8%	66.6%	8.3
CCC=C[C@]1(O)CCC2C3CCc4c(C#N)cccc4C3CC[C@@]21C (stereo partly drawn) [EM-3144]	12%	4.4 nM		8%	9.5%	71.4%	71.4%	8.5
CCCC#C[C@@H]1CC2C3CCc4c(C#N)cccc4C3CC[C@]2(C)[C@H]1O (stereo partly drawn) [EM-3165]	14%	15.1 nM		1%	19%	14.3%	23.8%	7.2
CC(C)C#C[C@]1(O)CCC2C3CCc4c(C#N)cccc4C3CC[C@@]21C (stereo partly drawn) [EM-3166]	15%	21.8 nM		0%	47.6%	66.6%	76.2%	5.0
CC(=O)O[C@H]1C(C)(C)CC2C3CCc4c(C#N)cccc4C3CC[C@@]21C (stereo partly drawn) [EM-3178]	0%	17 nM		0%	9.5%	9.5%	38.1%	4.1
CC[C@@]1(C)C[C@H]2[C@@H]3CCc4c(C#N)cccc4[C@H]3CC[C@]2(C)C1=O [EM-3180, 4-cyano-16α-methyl-16β-ethyl-1,3,5(10)-estratrien-17-one]	0%	35 nM		0%	57.1%	90.5%	95.2%	2
CC[C@]1(C)CC2C3CCc4c(C#N)cccc4C3CC[C@]2(C)C1=O (stereo partly drawn) [EM-3217]					4.8%	0%	42.8%	˜1
CC[C@@]1(C)C[C@H]2[C@@H]3CCc4c(C#N)cccc4[C@H]3CC[C@]2(C)[C@H]1O [EM-3221, 4cyano-16α-methyl-16β-ethyl-1,3,5(10)-estratrien-17β-ol]	1%	3.2 nM		0%	0%	9.5%	33.3%	6.6
C[C@@H]1CC2C3CCc4c(C#N)cccc4C3CC[C@]2(C)C1=O (stereo partly drawn) [EM-3223]	18%			0%	25.9%	37%	59.2%	
CC[C@]1(C)CC2C3CCc4c(C#N)cccc4C3CC[C@]2(C)[C@H]1O (stereo partly drawn) [EM-3226]	0%	3.6 nM		0%	7.4%	29.6%	33.3%	5.9
CCC1(CC)CC2C3CCc4c(C#N)cccc4C3CC[C@]2(C)C1=O (stereo partly drawn) [EM-3411]	10%			0%	3.7%	14.8%	62.9%	˜1
